| SMILES | melting point [°C] |
| --- | --- |
| Cc1c(NCc2ccccc2)c2c(c3c1C(c1ccc(C(C)C)cc1)CO3)CCCC2 (stereo unspecified) | 98 to 99 |
| CCCCOCCCn1c(CCCC)nc2cnc3cccnc3c21 | 56.5 to 57.5 |
| CCC1CC2C3CCC4=CC(=O)CCC4C3CCC2(C)C1OC(=O)CO (stereo unspecified) | 156 to 157 |
| CC1(C)Cc2nc(C3CCCC3)c(C(=O)c3ccc(C(F)(F)F)cc3)c(-c3ccc(F)c(F)c3)c2C(O[Si](C)(C)C(C)(C)C)C1 (stereo unspecified) | 128 to 129 |
| O=S(=O)(c1nc2c3ccccc3c3ccccc3c2[nH]1)C(F)(F)C(F)F | 254 to 256 |
| CNC(=O)Nc1cccc2c1C(=O)c1c-2n[nH]c1-c1ccc(OC)cc1 | > 300 |
| CCCN(CCCCNc1ncc(Cc2ccnc(O)c2)c(=O)[nH]1)c1ccccn1 | 138 to 140 |
| Clc1ccc2ccc(COc3ccc4c(c3)C(SCCc3nnn[nH]3)c3ccccc3CO4)nc2c1 (stereo unspecified) | 142 to 147 |
| ClCc1cn2c(-c3ccccc3)cccc2n1 | 126 to 127 |
| CC(C)N(Cc1cccs1)C(=O)C12CC3CC(CC(C3)C1)C2 | 156 to 158 |
| Nc1ccc(C2=NC(O)C(=O)Nc3ccc(Cl)cc32)cc1 (stereo unspecified) | > 350 |
| [O-][N+](=Cc1ccccn1)c1cccc(CO)c1 | 117 to 119 |
| CCOC(=O)c1ncn2c1CN(C)C(=O)c1c-2cccc1[N+](=O)[O-] | 212 to 213 |
| COc1ccc(-c2cc(=O)c3c(OC)cc(OC)cc3o2)cc1 | 156 |
| C=C1C(=C)C2OC1c1cc3c(OC)ccc(OC)c3cc12 | 205 to 206 |
| O=C1[C@@H](CCCO)O[C@H](c2ccccc2)c2ccccc2N1Cc1ccccc1 (relative stereo) | 59 to 62 |
| CCCCCCCCCCCCCCCC(=O)OC(CCCCCCCCCCCCCC)C(=O)O (stereo unspecified) | 55 to 56 |
| Oc1ccc2ccc(OCc3ccc4ccccc4n3)cc2c1 | 218 to 220 |
| COc1ccc(Cn2c(=O)c3ccccc3n(CCCCBr)c2=O)cc1 | 124 to 125 |
| O=C(O)COc1cccc2c1CCc1sc(NC(c3ccccc3)c3ccccc3)nc1-2 | 250 to 252 |
| COC(=O)[C@@](C#N)(Cc1ccc(Br)cc1)[C@H](c1ccccc1OC)c1cccc2ccccc12 (relative stereo) | 218 to 219 |
| CNc1ncnc2c1ncn2C1CC(F)C(CO)O1 (stereo unspecified) | 100 to 103 |
| OC1CCC(Nc2nc(Cl)nc(Cl)n2)CC1 (stereo unspecified) | 120 |
| CCNc1nc(-c2cccc([N+](=O)[O-])c2)c2cc(OC)c(OC)cc2n1 | 164 to 166 |
| O=C(O)[C@H](Cc1ccc(O)cc1)NS(=O)(=O)c1ccc(N2CCC(c3ccccc3)CC2)cc1 | 108 to 110 |
| CCOC(=O)C(NC(C)=O)(C(=O)OCC)C1=Nc2ccc(Cl)cc2C(c2ccccc2Cl)=NC1 | 153 to 155 |
| CC(=O)N[C@@H](CS)C(=O)NCCSC(C)=O | 153 to 154 |
| CCN(CC)CCSC1=C(C#N)C(c2ccc(OC)cc2)(c2cccnc2)C(=O)N1 (stereo unspecified) | 133 |
| CCC1CC2C3CCc4cc(OC)ccc4C3CCC2(CC)C1=O (stereo unspecified) | 101 to 102 |

Second part, the compound after the results:

| melting point [°C] | SMILES |
| --- | --- |
| > 270 | O=C(O)c1ccc(-c2ccc(NC(=O)C(F)(F)F)cc2)[nH]c1=O |
| 135 to 136 | COc1cc(NC(=C(C#N)S(C)(=O)=O)C(C)C)cc(OC)c1 |
| 130 | Cc1ccc(S(=O)(=O)N2[C@@H](CCl)CC[C@H]2c2ccc(F)cc2)cc1 (racemic) |
| 128 to 130 | Cc1noc2ccc(Oc3ncccc3C(=O)NCc3ccc(C(C)(C)O)cc3)cc12 |
| 169 to 172 | C=C1C(O)C(CO)OC1n1cc(I)c(=O)[nH]c1=O (stereo unspecified) |
| 161 to 163 | O=C(O)C1Cc2[nH]c3ccc(OCc4ccccc4)cc3c2C1 (stereo unspecified) |
| 136 to 139 | Cc1ccc(NC(=O)c2cccc(N(C)C)c2)cc1NC(=O)c1ccccc1O |
| 188 to 190 | CCOCc1nc2c(N)nc3cc(-c4cncc(CO)c4)ccc3c2n1CC(C)(C)O |
| 103 to 105 | CC(=O)c1ccc(-c2ccc(Cl)cc2)c([N+](=O)[O-])c1 |
| 194 to 196 | CN1CCN(C2CCC(Nc3ncc4ncnc(Nc5ccc(F)c(Cl)c5)c4n3)CC2)CC1 (stereo unspecified) |
| 266 to 270 | Oc1cc2c3ccc(O)c(O)c3n(Cc3ccc(C(F)(F)F)cc3)c2cc1O |
| 159 to 165 | Nc1nc(OCc2ccccc2)c2ncn(CC(=O)O)c2n1 |
| 62 | CCCCN(CCCC)C(=O)c1cc2ccccc2c(-c2ccccc2)n1 |
| 104 to 107 | COc1ccc2c(c1)c(Cc1cc(=O)n(C3CCCCC3)[nH]1)c(C)n2C(=O)c1ccc(Cl)c(Cl)c1 |
| 292 | CC(C)n1cc(-c2nc(C(N)=O)c(N)nc2-c2ccc(C#N)cc2)ccc1=O |
| 206 to 207 | N#Cc1c[nH]c2cccc(O)c12 |
| 80 | COc1ccc2c(c1)C(=O)CC21CCCC1 |
| 182 to 184 | Cc1c(F)cc(C(=O)O)c(Cl)c1N |
| 224 to 225 | Cc1ccc(-c2ccc3c(c2)C=C(C(=O)O)CC(C)O3)cc1 (stereo unspecified) |
| 110 to 121 | CCOc1ccc(-c2ccc(C#N)cc2)cc1C=O |
| 107 to 110 | Cc1cccc(-c2n[nH]cc2-c2ccc(F)c(-c3ccc(S(N)(=O)=O)c(C(F)(F)F)c3)c2)n1 |

| melting point [°C] | SMILES |
| --- | --- |
| 104 to 105 | OCCc1c(-c2ccccc2)nc(Cl)n2ncnc12 |
| 117 to 119 | O=Cc1ccc(S(=O)(=O)CCCl)cc1Cl |
| 98 to 102 | CC1CC(=O)c2cc(Cl)cc(Cl)c2O1 (stereo unspecified) |
| 126 to 127 | COc1ccc(S(=O)(=O)Oc2ccc(N3CCNC3=O)cc2)cc1 |
| 173 to 175 | Cc1sc(N2C(=O)c3ccccc3C2=O)c(C(=O)c2ccc(Cl)cc2)c1CBr |
| 87 to 89 | COC(=O)C=Cc1cc(Cl)ccc1C(=O)OC |
| 295 to 297 | COC[C@H](C)NC(=O)c1c[nH]c2ncc(-c3nn(C)c4cc(F)c(F)cc34)nc12 |
| 133 to 135 | CNC(=O)COC(=O)N1CCN(CCc2ccc3ccccc3c2)CC1 |
| 105 to 125 | Cc1cccc(Br)c1C(=O)c1sc(Nc2ccc(N3CCOCC3)cc2)nc1N |
| 89 to 92 | CCN(CC)C(=O)c1cc(C(C)(C)C)ccc1-c1ccc(OC)cc1 |
| 96 to 112 | CC(=O)Nc1ncc(S(=O)(=O)NCC(O)(Cn2cncn2)c2ccc(Cl)cc2Cl)s1 (stereo unspecified) |
| 170 to 173 | Cn1nc(C(F)(F)F)cc1O |
| 176 to 177 | Clc1ccc(-c2nnnn2Cc2ccccc2)s1 |
| 202 to 203 | CC(C)(C)c1cc(CCc2ccccc2NC(=O)NC2CCC(O)CC2)cc(C(C)(C)C)c1O (stereo unspecified) |
| 220 | COc1ccc(-c2cc3ccc(C)cc3[nH]2)cc1 |
| > 250 | Cc1ccc2c(c1)C=Cc1ncccc1C2c1c[nH]c(=O)[nH]c1=S (stereo unspecified) |
| 137 to 138 | CN1c2cscc2C(=O)N(Cc2ccccc2)c2ccccc21 |
| 114 to 116 | CN1C(=O)CC[C@]2(C)c3ccc(-c4ccc(F)c(Cl)c4)cc3CC[C@@H]12 |
| 238 to 239 | O=C(O)CCc1c(C(=O)O)[nH]c2cc(-c3ccccc3)ccc12 |
| 158 to 160 | CC(C)c1ccc(N(Cc2ccc(N(C)C)cc2)C(=O)C2CCc3c(O)cccc32)cc1 (stereo unspecified) |
| 184 to 187 | CCOC(=O)c1[nH]c(=O)n(C)c(=O)c1OCc1ccccc1 |

Source: a melting point compilation (Tetko et al.; mined from patent text by program, amines drawn as free bases though some values may be those of a salt)
